# In patent US10357533B2, “Drug for the effective control of acute and or chronic pain and a method for its administration” (PVP LABS PTE. LTD., priority 2016, dated 2019):
# Where a SMILES comes first, the peptide text is derived from it. [ ]: non-standard residue; d: D form.
# How the values were obtained:
# patients = assay: Clinical application in patients with severe pain; assay type: in vivo, humans
# Procedure: The use of the peptide compound in patients who have been informed about the drug and who have given their consent
# When the morphine drug therapy was once again possible, the use of the experimental prototype of the drug was stopped.
# Based on the extrapolation of animal data for dosages for humans, we decided to use 0.7-3 mg of the active tetrapeptide in a single dose, administered by subcutaneous injection, and under the supervision of a specialist. The drug was packaged in lyophilized form of 3 mg per vial before use and dissolved in 1-3 ml of water for injections.
# The following parameters were recorded:
# 1. Time of onset of analgesic effect, duration of effect.
# Dynamics of pain on a numerical scale of 0-10: 0—no pain, 10—unbearable pain. The patient makes regular notes on the intensity level of pain during treatment to assess the analgesic effect. Separately, the intensity of pain is noted before receiving the experimental prototype preparation, and during its' administration. 2. The physical activity of the patient. Measured on a scale: 1—normal activity, 2—activity is reduced; the patient is able to go to their own doctor, 3—bed rest at least 50% of the day, 4—bed rest for more than 50% of the day, 5—complete bed rest. 3. Subjective feelings of the patient A change of perception, mood, presence/absence of euphoria or dysphoria, discomfort in the body, feelings in the digestive tract.
# Basically, the study was conducted in patients with somatic and internal types of pain, though often it was not possible to accurately classify the type of pain.
# mice [1] = assay: Open field test and toxicity of high doses in mice; assay type: in vivo; settings: intraperitoneally
# Procedure: Testing of the influence of the injectable substance based on tetrapeptide (as in example 2) H-Tyr-D-Arg-Phe-Gly-NH2 on the behavior of animals, was provided in the study of the toxicity of high doses of the “open field” test and maintaining balance on a horizontal rod.
# The aim of the experiment was to identify an effective dose of the substance that affects the behavior of the animals. It was tested on several animals after administration of different doses of peptide compound.
# The experimental and control groups of male mice were taken from the same batch, about the same weight (22-24 g).
# The substance was injected intraperitoneally in identical weight amounts to laboratory animals in the experimental and control groups, respectively. […] The measurement was started 15 minutes after injection.
# Several groups were organized: without the introduction of the substance, and with the introduction of a solution of morphine or peptide. After 15 from injection we conducted measurement in the following order:
# Each animal tested was introduced into a round, not brightly lit arena. The surface is divided into square blocks of 10 cm each. We count locomotor activity of the mouse when it crossed the square. The movement of the mouse in the center of the arena and on the periphery, are recorded separately. We registered the number of times the mouse stands on its hind legs “stand” and the number of times the mouse looks into a “burrow”—ie. holes in the floor. Observations were done visually and were simultaneously entered into a computer using a keyboard (semi-automatic registration).
# rats = assay: Hot plate test in rats; assay type: in vivo; settings: for HPL, s (Mean ± SEM): hot plate 52° C.
# Procedure: The “Hot Plate” test is based on the reflex that rat licking its' feet when the animal comes in contact with a hot surface. The device is a metal surface with a diameter of 30 cm whose temperature is controlled by software. The site is enclosed by a transparent fence with a height of 40 cm. The temperature of the metal pad was set at exactly 52° C. When placing the animal on the surface, you measure the time until the moment when the animal licks its' foot. When analgesics are administered, the time before the rat licks its' feet increases. The licking latency (HPL) of 40 seconds was used as the maximum allowable time of stimulation. The study was conducted on male rats weighing 160-180 g, 6 animals per dose.
# mice [2] = assay: Acetic acid-induced writhing test in mice; assay type: in vivo; settings: for Number of writhings, n (Mean ± SEM): 15 minutes count
# Procedure: The acetic acid-induced writhing test is a model of a chemical nociceptive stimulus applied by the intraperitoneal injection of acetic acid solution.
# Intraperitoneal injection of substances that irritate serous membranes in mice induces distinctive movements, including contractions of abdominal muscles followed by muscle relaxation, extension of the hind limbs and curving of the back, known as writhing. Mice were given an intraperitoneal injection of 1% acetic acid at a dose of 0.1 mL per 10 g body weight. After the injection the mice were placed in transparent acrylic chambers and counted the number of writhings in each animal for the next 15 minutes. The analgesic effect was evaluated by a reduction in the number of writhings in mice that received the study drug relative to the control group. […] Writhing onset latency in mice was used as an additional parameter for evaluating the efficacy of the substance in the acetic acid-induced writhing test.
structure (smiles),measurement,setting,value
"N=C(N)NCCC[C@@H](NC(=O)[C@@H](N)Cc1ccc(O)cc1)C(=O)N[C@@H](Cc1ccccc1)C(=O)NCC(N)=O [Peptide compound, H-Tyr-D-Arg-Phe-Gly-NH2] (H-Y[dR]FG-NH2)",duration of analgesic effect,"patients; Patient 1, 3 mg 2 times a day",8 to 12 h
same,subjective feelings / negative effects,"patients; Patient 1, 3 mg 2 times a day, first injection",very light dysphoric effect for 10-15 minutes
same,"degree of analgesia, pain scale 0-10","patients; Patient 1, pain before 6-9, 3 mg 2 times a day",1-3
same,Time of analgesia (onset),"patients; Patient 1, pancreatic cancer stage IV, pain 6-9, 3 mg 2 times a day subcutaneous, 5 days",10 to 15 min
same,duration of analgesic effect,patients; Patient 2,6 to 12 h
same,negative effects,patients; Patient 2,No negative effects were detected
same,"degree of analgesia, pain scale 0-10","patients; Patient 2, 2 mg three times first day, then 1.5 mg 2 times a day",2-3
same,Time of analgesia (onset),"patients; Patient 2, colon cancer stage IV, 2 mg three times first day, then 1.5 mg 2 times a day, 4 days",10 to 15 min
same,duration of analgesic effect,patients; Patient 3,8 to 10 h
same,negative effects,patients; Patient 3,No negative effects were detected
same,Time of analgesia (onset),"patients; Patient 3, colon cancer stage IV, pain 7-10, 1.5 mg 2 times a day, 4 days",10 to 15 min
same,"degree of analgesia, pain scale 0-10","patients; Patient 3, pain before 7-10, 1.5 mg 2 times a day",1-3
same,duration of analgesic effect,patients; Patient 4,8 to 10 h
same,negative effects,patients; Patient 4,No negative effects were detected
same,time of analgesic effect (onset),"patients; Patient 4, breast cancer stage IV, pain 7-10, 1.5 mg 2 times a day, 5 days",10 to 20 min
same,"degree of analgesia, pain scale 0-10","patients; Patient 4, pain before 7-10, 1.5 mg 2 times a day",1-3
same,duration of analgesic effect,patients; Patient 5,8 to 10 h
same,negative effects,patients; Patient 5,No negative effects were detected
same,Time of analgesia (onset),"patients; Patient 5, breast cancer stage IV, pain 7-8, 0.7 mg two times a day, 6 days",10 to 15 min
same,"degree of analgesia, pain scale 0-10","patients; Patient 5, pain before 7-8",1-3
same,duration of analgesic effect,patients; Patient 6,8 to 12 h
same,negative effects,patients; Patient 6,No negative effects were detected
same,Time of analgesia (onset),"patients; Patient 6, compression fracture of a vertebra, pain 7-8, 1.5 mg 2 times a day, 2 days",10 to 15 min
same,"degree of analgesia, pain scale 0-10","patients; Patient 6, pain before 7-8",1-3
same,"adverse reactions (impaired consciousness, euphoria or dysphoria, digestive tract, respiratory depression, heart disorders)",patients; all of the cases (Patients 1-6),no adverse reactions
same,doses that do not result in toxic effects,mice [1],up to 200 EC50
same,toxic effects,mice [1]; dose of 100 mg/kg,"the animals continued to move actively, breathing was not inhibited, and heart beats were stable"
same,reduced activity moving around the field,"mice [1]; open field, dose of 20-100 mg/kg, 15 minutes after injection",20-25%
same,"reduction in exploratory activity (""stand-burrow"")","mice [1]; open field, large doses",20-30%
same,"Proportion of the maximum possible effect (MPE), %",rats; 0.1 mg/kg subcutaneous,38.2%
same,"HPL, s (Mean ± SEM)",rats; 0.1 mg/kg subcutaneous,26.01 ± 8.8 s
same,"Proportion of the maximum possible effect (MPE), %",rats; 5 mg/kg subcutaneous,98.3%
same,"HPL, s (Mean ± SEM)",rats; 5 mg/kg subcutaneous,39.33 ± 1.63 s
same,dose at which the effect of full analgesia was observed,rats; hot plate,5 mg/kg
same,higher level of activity in comparison with morphine,rats; hot plate,~10 times
same,dose of morphine with corresponding analgesic efficacy,"rats; hot plate, proposed drug 0.1 mg/kg",5 mg/kg
same,"increase in writhing onset latency relative to the control group, factor",mice [2]; 0.25 mg/kg,2.6
same,"reduction of visceral pain (number of writhings) relative to the control group, factor",mice [2]; 0.25 mg/kg,2.2
same,% of mice w/o writhing,mice [2]; 0.25 mg/kg subcutaneous,0%
same,Number of mice w/o writhing/number of mice in group,mice [2]; 0.25 mg/kg subcutaneous,0/9
same,"Writhing onset latency, s (Mean ± SEM)",mice [2]; 0.25 mg/kg subcutaneous,397.2 ± 69.95 s
same,"Number of writhings, n (Mean ± SEM)",mice [2]; 0.25 mg/kg subcutaneous 40 minutes before acetic acid,40.7 ± 4.50 n
same,animals that exhibited writhing,mice [2]; 0.25 mg/kg subcutaneously,100%
same,animals in which the pain response was observed,mice [2]; 0.5 mg/kg,40.0%
same,"increase in writhing onset latency relative to the control group, factor",mice [2]; 0.5 mg/kg,4.1
same,"reduction of visceral pain (number of writhings) relative to the control group, factor",mice [2]; 0.5 mg/kg,31.8
same,% of mice w/o writhing,mice [2]; 0.5 mg/kg subcutaneous,40.0%
same,Number of mice w/o writhing/number of mice in group,mice [2]; 0.5 mg/kg subcutaneous,4/10
same,"Writhing onset latency, s (Mean ± SEM)",mice [2]; 0.5 mg/kg subcutaneous,632.5 ± 80.62 s
same,"Number of writhings, n (Mean ± SEM)",mice [2]; 0.5 mg/kg subcutaneous 40 minutes before acetic acid,2.8 ± 1.00 n
same,animals in which the pain response was observed,mice [2]; 1 mg/kg,55.6%
same,"increase in writhing onset latency relative to the control group, factor",mice [2]; 1 mg/kg,4.9
same,"reduction of visceral pain (number of writhings) relative to the control group, factor",mice [2]; 1 mg/kg,74.2
same,% of mice w/o writhing,mice [2]; 1 mg/kg subcutaneous,55.6%
same,Number of mice w/o writhing/number of mice in group,mice [2]; 1 mg/kg subcutaneous,5/9
same,"Writhing onset latency, s (Mean ± SEM)",mice [2]; 1 mg/kg subcutaneous,762.8 ± 55.76 s
same,"Number of writhings, n (Mean ± SEM)",mice [2]; 1 mg/kg subcutaneous 40 minutes before acetic acid,1.2 ± 0.49 n
